Laboratory results as given in paper PMC7497403, “Development of Potent PfCLK3 Inhibitors Based on TCMDC-135051 as a New Class of Antimalarials” (Journal of Medicinal Chemistry, 2020).

Tests used:
Assay in all cases: Kinase screen
Assay type in all cases: biochemical
[1] = molecular target: Aurora A (Homo sapiens, UniProt O14965)
From the text: (§1) With verapamil used as a positive control.
(§2) V. Distribution coefficient (LogD7.4)

[2] = molecular target: BRK (Homo sapiens, UniProt Q13882)
From the text: as §1, §2

[3] = molecular target: CAMKKb (Homo sapiens, UniProt Q96RR4)
From the text: as §1, §2

[4] = molecular target: CK1γ2 (Homo sapiens, UniProt P78368)
CK1γ2, sequence (P78368 whole entry): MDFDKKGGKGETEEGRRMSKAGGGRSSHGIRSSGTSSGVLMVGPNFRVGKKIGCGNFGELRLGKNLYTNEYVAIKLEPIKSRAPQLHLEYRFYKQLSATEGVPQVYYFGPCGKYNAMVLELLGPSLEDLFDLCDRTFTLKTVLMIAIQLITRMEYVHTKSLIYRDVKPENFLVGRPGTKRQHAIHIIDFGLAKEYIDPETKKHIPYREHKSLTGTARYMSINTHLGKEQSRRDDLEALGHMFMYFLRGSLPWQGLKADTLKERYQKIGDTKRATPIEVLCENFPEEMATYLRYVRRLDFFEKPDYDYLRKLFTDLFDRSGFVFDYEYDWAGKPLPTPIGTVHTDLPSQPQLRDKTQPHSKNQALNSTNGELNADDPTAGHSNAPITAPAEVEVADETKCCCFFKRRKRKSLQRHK
From the text: as §1, §2

[5] = molecular target: CK2 (Homo sapiens, UniProt P68400)
From the text: as §1, §2

[6] = molecular target: DDR2 (Homo sapiens, UniProt Q16832)
From the text: as §1, §2

[7] = molecular target: EPH-B2 (Homo sapiens, UniProt P29323)
EPH-B2, sequence (P29323 19-1055): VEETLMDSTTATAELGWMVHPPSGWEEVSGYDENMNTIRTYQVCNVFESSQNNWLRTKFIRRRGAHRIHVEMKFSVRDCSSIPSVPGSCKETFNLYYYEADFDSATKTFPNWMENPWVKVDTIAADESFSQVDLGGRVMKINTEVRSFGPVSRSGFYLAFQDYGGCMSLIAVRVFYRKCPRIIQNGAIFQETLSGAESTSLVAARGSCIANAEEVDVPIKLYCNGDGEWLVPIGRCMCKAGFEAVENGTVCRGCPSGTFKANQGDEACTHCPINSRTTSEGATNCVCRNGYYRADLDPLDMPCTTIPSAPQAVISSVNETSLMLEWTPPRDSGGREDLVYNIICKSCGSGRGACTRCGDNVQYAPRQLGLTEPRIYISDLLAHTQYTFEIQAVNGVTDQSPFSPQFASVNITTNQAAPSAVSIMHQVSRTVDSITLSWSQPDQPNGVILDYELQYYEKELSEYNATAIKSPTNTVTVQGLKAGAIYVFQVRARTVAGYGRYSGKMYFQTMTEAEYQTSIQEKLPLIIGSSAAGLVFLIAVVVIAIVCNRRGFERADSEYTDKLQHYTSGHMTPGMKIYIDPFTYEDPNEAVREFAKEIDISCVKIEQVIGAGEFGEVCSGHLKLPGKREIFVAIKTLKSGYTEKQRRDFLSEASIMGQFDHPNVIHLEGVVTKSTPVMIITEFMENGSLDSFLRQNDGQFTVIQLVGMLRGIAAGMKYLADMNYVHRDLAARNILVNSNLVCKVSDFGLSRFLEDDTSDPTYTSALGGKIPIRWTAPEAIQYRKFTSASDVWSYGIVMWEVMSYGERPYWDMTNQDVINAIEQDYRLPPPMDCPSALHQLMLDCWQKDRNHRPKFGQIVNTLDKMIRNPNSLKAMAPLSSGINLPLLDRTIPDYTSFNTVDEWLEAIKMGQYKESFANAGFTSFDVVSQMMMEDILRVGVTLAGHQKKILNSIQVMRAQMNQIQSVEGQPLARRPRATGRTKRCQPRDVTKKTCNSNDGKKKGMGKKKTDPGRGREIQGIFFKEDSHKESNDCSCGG
From the text: as §1, §2

[8] = molecular target: EPH-B4 (Homo sapiens, UniProt P54760)
From the text: as §1, §2

[9] = molecular target: ERK1 (Homo sapiens, UniProt P27361)
ERK1, sequence (P27361 whole entry): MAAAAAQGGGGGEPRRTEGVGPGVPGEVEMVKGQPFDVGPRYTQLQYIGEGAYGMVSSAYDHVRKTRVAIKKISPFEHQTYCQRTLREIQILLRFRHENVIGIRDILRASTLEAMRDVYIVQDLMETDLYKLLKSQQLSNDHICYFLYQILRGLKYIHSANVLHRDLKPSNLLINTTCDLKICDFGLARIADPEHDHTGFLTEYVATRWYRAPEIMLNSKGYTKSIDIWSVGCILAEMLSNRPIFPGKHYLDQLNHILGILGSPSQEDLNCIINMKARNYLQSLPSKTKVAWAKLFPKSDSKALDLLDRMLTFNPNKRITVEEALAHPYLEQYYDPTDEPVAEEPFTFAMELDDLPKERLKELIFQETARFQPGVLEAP
From the text: as §1, §2

[10] = molecular target: ERK5 (Homo sapiens, UniProt Q13164)
From the text: as §1, §2

[11] = molecular target: HIPK2 (Homo sapiens, UniProt Q9H2X6)
From the text: as §1, §2

[12] = molecular target: IGF-1R (Homo sapiens, UniProt P08069)
From the text: as §1, §2

[13] = molecular target: IKKb (Homo sapiens, UniProt O14920)
From the text: as §1, §2

[14] = molecular target: IRAK4 (Homo sapiens, UniProt Q9NWZ3)
From the text: as §1, §2

[15] = molecular target: JAK3 (Homo sapiens, UniProt P52333)
From the text: as §1, §2

[16] = molecular target: Lck (Homo sapiens, UniProt P06239)
From the text: as §1, §2

[17] = molecular target: MAP4K3 (Homo sapiens, UniProt Q8IVH8)
From the text: as §1, §2

[18] = molecular target: MAPKAP-K2 (Homo sapiens, UniProt P49137)
From the text: as §1, §2

[19] = molecular target: MAPKAP-K3 (Homo sapiens, UniProt Q16644)
From the text: as §1, §2

[20] = molecular target: MELK (Homo sapiens, UniProt Q14680)
MELK, sequence (Q14680 whole entry): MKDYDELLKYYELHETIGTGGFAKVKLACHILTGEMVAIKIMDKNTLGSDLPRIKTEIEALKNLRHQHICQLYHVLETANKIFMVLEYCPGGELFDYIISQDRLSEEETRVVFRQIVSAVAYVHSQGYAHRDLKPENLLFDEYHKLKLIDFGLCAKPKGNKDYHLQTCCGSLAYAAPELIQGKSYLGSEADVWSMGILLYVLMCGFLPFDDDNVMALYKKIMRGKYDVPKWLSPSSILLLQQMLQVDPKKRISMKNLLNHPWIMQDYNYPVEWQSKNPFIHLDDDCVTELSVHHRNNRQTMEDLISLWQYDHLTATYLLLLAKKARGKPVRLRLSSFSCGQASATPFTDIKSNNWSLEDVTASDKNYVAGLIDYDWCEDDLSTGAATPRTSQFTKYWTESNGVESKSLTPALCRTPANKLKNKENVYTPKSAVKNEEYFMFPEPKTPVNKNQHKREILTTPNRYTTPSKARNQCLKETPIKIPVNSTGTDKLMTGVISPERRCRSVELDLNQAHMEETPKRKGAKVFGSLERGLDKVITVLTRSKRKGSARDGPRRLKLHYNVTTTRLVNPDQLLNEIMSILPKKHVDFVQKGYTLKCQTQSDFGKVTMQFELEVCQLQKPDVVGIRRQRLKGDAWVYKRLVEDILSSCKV
From the text: as §1, §2

[21] = molecular target: MKK1 (Homo sapiens, UniProt Q02750)
From the text: as §1, §2

[22] = molecular target: MNK2 (Homo sapiens, UniProt Q9HBH9)
From the text: as §1, §2

[23] = molecular target: MSK1 (Homo sapiens, UniProt O75582)
From the text: as §1, §2

[24] = molecular target: PAK2 (Homo sapiens, UniProt Q13177)
From the text: as §1, §2

[25] = molecular target: PAK4 (Homo sapiens, UniProt O96013)
From the text: as §1, §2

[26] = molecular target: PDGFRA (Homo sapiens, UniProt P16234)
From the text: as §1, §2

[27] = molecular target: PHK (Homo sapiens, UniProt Q16816)
PHK, sequence (Q16816 whole entry): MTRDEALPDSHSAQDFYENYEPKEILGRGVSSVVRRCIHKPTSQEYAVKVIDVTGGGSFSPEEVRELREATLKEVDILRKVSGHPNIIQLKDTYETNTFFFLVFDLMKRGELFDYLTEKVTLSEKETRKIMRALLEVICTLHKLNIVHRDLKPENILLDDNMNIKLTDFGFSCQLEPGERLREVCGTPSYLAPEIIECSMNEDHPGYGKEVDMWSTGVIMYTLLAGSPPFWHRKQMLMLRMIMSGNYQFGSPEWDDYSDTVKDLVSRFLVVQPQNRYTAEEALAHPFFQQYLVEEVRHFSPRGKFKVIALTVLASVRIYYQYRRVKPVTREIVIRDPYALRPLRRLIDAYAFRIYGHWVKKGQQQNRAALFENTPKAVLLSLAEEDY
From the text: as §1, §2

[28] = molecular target: PIM1 (Homo sapiens, UniProt P11309)
From the text: as §1, §2

[29] = molecular target: PKBb (Homo sapiens, UniProt P31751)
From the text: as §1, §2

[30] = molecular target: PKCa (Homo sapiens, UniProt P17252)
From the text: as §1, §2

[31] = molecular target: PKD1 (Homo sapiens, UniProt Q15139)
From the text: as §1, §2

[32] = molecular target: PRK2 (Homo sapiens, UniProt Q16513)
From the text: as §1, §2

[33] = molecular target: RIPK2 (Homo sapiens, UniProt O43353)
From the text: as §1, §2

[34] = molecular target: ROCK 2 (Homo sapiens, UniProt O75116)
From the text: as §1, §2

[35] = molecular target: SGK1 (Homo sapiens, UniProt O00141)
From the text: as §1, §2

[36] = molecular target: SIK2 (Homo sapiens, UniProt Q9H0K1)
From the text: as §1, §2

[37] = molecular target: SIK3 (Homo sapiens, UniProt Q9Y2K2)
From the text: as §1, §2

[38] = molecular target: STK33 (Homo sapiens, UniProt Q9BYT3)
From the text: as §1, §2

[39] = molecular target: TBK1 (Homo sapiens, UniProt Q9UHD2)
From the text: as §1, §2

[40] = molecular target: TESK1 (Homo sapiens, UniProt Q15569)
From the text: as §1, §2

[41] = molecular target: TTK (Homo sapiens, UniProt P33981)
From the text: as §1, §2

[42] = molecular target: TrkA (Homo sapiens, UniProt P04629)
TrkA, sequence (P04629 33-796): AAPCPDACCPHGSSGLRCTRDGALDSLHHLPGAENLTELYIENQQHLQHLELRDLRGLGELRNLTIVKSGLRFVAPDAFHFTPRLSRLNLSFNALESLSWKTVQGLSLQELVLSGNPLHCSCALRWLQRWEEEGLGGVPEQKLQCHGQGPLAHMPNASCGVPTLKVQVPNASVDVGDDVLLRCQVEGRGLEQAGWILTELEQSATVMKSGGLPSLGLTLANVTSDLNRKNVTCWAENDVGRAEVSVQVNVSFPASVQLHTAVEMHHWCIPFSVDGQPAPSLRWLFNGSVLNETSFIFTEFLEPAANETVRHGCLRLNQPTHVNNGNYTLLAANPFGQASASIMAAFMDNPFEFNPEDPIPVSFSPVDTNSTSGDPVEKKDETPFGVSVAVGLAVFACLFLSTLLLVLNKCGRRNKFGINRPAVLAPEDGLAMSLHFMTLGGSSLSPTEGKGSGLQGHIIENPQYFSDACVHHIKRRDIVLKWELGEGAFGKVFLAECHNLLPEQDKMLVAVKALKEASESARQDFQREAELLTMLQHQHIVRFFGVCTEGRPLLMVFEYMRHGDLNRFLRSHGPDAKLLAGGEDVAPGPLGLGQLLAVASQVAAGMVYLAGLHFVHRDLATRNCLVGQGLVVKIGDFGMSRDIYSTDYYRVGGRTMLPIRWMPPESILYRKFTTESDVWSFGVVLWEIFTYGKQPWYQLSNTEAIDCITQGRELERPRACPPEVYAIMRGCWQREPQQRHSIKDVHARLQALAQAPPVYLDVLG
From the text: as §1, §2

[43] = molecular target: ZAP70 (Homo sapiens, UniProt P43403)
ZAP70, sequence (P43403 whole entry): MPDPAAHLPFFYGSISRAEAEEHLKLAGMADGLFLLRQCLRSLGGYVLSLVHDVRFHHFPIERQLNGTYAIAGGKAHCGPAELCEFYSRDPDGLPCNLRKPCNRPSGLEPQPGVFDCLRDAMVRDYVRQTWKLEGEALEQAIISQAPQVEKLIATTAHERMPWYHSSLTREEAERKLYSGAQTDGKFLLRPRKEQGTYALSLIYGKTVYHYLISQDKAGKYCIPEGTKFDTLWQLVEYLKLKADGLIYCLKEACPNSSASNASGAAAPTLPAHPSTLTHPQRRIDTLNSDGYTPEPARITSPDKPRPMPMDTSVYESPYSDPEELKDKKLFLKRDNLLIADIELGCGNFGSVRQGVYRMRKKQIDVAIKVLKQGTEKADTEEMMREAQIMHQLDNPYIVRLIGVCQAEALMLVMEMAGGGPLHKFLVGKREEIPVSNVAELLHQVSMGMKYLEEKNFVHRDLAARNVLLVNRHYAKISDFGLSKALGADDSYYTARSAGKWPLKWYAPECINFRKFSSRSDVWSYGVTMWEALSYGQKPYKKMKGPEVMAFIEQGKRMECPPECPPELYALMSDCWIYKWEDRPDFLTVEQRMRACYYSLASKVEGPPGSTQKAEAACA
From the text: as §1, §2

[44] = molecular target: p38b MAPK (Homo sapiens, UniProt Q15759)
p38b MAPK, sequence (Q15759 whole entry): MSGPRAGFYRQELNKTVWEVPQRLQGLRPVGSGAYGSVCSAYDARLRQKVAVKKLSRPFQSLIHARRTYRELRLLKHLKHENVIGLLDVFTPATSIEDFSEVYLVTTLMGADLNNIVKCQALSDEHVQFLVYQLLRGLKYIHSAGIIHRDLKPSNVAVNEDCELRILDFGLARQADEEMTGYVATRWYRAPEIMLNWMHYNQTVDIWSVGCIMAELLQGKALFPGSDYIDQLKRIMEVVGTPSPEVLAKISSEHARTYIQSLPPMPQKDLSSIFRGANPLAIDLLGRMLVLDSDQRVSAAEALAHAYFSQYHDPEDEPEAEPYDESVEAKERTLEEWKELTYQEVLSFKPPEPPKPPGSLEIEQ
From the text: as §1, §2

Aurora A, sequence (O14965 whole entry): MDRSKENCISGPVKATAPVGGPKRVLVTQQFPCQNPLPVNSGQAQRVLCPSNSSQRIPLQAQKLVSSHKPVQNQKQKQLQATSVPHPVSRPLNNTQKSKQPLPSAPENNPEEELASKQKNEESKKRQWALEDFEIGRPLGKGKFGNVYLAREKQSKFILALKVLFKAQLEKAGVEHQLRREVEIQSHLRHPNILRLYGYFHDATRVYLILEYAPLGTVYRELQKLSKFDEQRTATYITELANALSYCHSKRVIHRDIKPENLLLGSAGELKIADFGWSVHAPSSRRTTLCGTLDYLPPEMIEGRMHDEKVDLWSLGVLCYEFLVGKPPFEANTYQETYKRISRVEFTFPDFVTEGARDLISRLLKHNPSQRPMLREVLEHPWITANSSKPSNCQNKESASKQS

Molecule `CCN(CC)Cc1ccc(OC)c(-c2cc3c(-c4ccc(C(=O)O)c(C(C)C)c4)ccnc3[nH]2)c1` [analogue 1, 4-(2-(5-((Diethylamino)methyl)-2-methoxyphenyl)-1H-pyrrolo[2,3-b]pyridin-4-yl)-2-isopropylbenzoic Acid] has an activity at 1 µM [1] of 17%, an activity at 1 µM [2] of 33% and an activity at 1 µM [3] of 2%. It also gave an activity at 1 µM [4] of 93%, an activity at 1 µM [5] of 90% and an activity at 1 µM [6] of 21%. The activity at 1 µM [7] was 100%, the activity at 1 µM [8] was 82% and the activity at 1 µM [9] was 100%. For the same molecule, the activity at 1 µM [10] was 54%, the activity at 1 µM [11] was 56% and the activity at 1 µM [12] was 51%. It also gave an activity at 1 µM [13] of 144%, an activity at 1 µM [14] of 24% and an activity at 1 µM [15] of 22%. The activity at 1 µM [16] was 39%, the activity at 1 µM [17] was 1% and the activity at 1 µM [18] was 102%. For the same molecule, the activity at 1 µM [19] was 110%, the activity at 1 µM [20] was 85% and the activity at 1 µM [21] was 79%. The activity at 1 µM [22] was 29%, the activity at 1 µM [23] was 99% and the activity at 1 µM [24] was 84%. It also gave an activity at 1 µM [25] of 105%, an activity at 1 µM [26] of 133% and an activity at 1 µM [27] of 10%. For the same molecule, the activity at 1 µM [28] was 107%, the activity at 1 µM [29] was 96% and the activity at 1 µM [30] was 64%. It also gave an activity at 1 µM [31] of 85%, an activity at 1 µM [32] of 48% and an activity at 1 µM [33] of 16%. It also gave an activity at 1 µM [34] of 92%, an activity at 1 µM [35] of 38% and an activity at 1 µM [36] of 41%. It also gave an activity at 1 µM [37] of 71%, an activity at 1 µM [38] of 44% and an activity at 1 µM [39] of 66%. For the same molecule, the activity at 1 µM [40] was 78%, the activity at 1 µM [41] was 86% and the activity at 1 µM [42] was 87%. It also gave an activity at 1 µM [43] of 59% and an activity at 1 µM [44] of 112%.
